In PubChem BioAssay AID1918952 (Molecular Pharmacology Branch, DTP, NCI, 2023):

Tested on: LG0703-F948-PDC complex spheroid viability
Assay: Anticancer human tumor LG0703-F948-PDC patient-derived lung adenocarcinoma cell line growth inhibition
Settings: for IC50: curve of first compound; for viability, T/C: stronger effect = lower value
Text: Multicellular complex tumor spheroid response to LSD1 Inhibitor Iadademstat in combination with a variety of drugs and investigational agents in selected tumor cell lines
The current study was undertaken to assess response to LSD1 inhibitors in combination with standard-of-care drugs and investigational agents in solid tumor complex spheroid models as well as in the K-562 leukemia. Complex spheroids include a stromal component modeled by human endothelial cells (HUVEC) and fibroblasts modeled by human mesenchymal stem cells (MSCs). The concentration ranges selected for each drug and investigational agent were based upon clinically achievable concentrations if the clinical Cmax of the agent was known.
Compounds. The drugs and investigational agents used in this study are listed on Table 1. All of the agents used, including staurosporine (NSC755774) and gemcitabine (NSC613327), were obtained from the Developmental Therapeutics Program, NCI. FDA-approved anticancer drugs are available from the NCI at http://dtp.nci.nih.gov/branches/dscb/oncology_drugset_explanation.html. Drugs and investigational agents were >95% pure by proton nuclear magnetic resonance (NMR) and liquid chromatography/mass spectrometry (LC/MS). Stock solutions were prepared at 400x in DMSO, stored at -70 degrees C, and diluted in fresh medium prior to their use. The final concentration of DMSO in cell culture wells never exceeded 0.25% (v/v). The FDA-approved anticancer drug set is available from the Developmental Therapeutics Program at https://dtp.cancer.gov/organization/dscb/obtaining/available_plates.htm. All drugs and investigational agents were tested over a range starting from a high concentration at or near the clinical Cmax and decreasing in half-log increments. If the clinical Cmax for an agent had not been determined, the highest concentration tested was 10 microM.
Cell Lines. The patient-derived cancer cell (PDC) lines: 292921-168-R-J2-PDC, K24384-001-R-PDC, and 521955-158-R2-J5-PDC pancreatic carcinomas, 556581-035-R-J1 ovarian carcinoma, 324938-238-R-J1-PDC, 855422-203-R-J1-PDC and 883617-216-R-J1-PDC urothelial bladder carcinomas, 743489-274-T-PDC renal cell carcinoma, 138582-R-J1 Merkel cell tumor, K60290-347-R-J1 and K57222-313-R-J1-PDC glioblastomas, 653999-131-R-J2-PDC, LG0703-F948-PDC, and 349418-098-R-PDC non-small cell lung carcinomas, 885512-296-R-J2-PDC, 171881-019-R-J1-PDC breast carcinomas and 186277-243-T-J2-PDC and 233499-124-R-J2-PDC colon carcinomas were obtained from the NCI Patient-Derived Models Repository (PDMR, https://pdmr.cancer.gov). The established cell lines NCI/ADR-RES (RRID:CVCL_14520 and OVCAR-5 (RRID:CVCL_1628) ovarian carcinomas, 786-O (RRID:CVCL_1051) and A498 (RRID:CVCL_A498) renal cell carcinoma, NCI-H211 (ATCC, cat. CRL-5824; RRID:CVCL_1529), NCI-H196 (ATCC, cat. CRL-5823, RRID:CVCL_1509), SW 1271 (ATCC, cat. CRL-2177, RRID:CVCL_1716) and NCI-H1876 (ATCC, cat. CRL-5902, RRID:CVCL_1503) small cell lung carcinomas, MDA-MB-231 (RRID:CVCL_0062) and MDA-MB-468 (RRID:CVCL_0419)breast carcinomas (10-12). Pooled donor human umbilical vein endothelial cells (HUVEC, Lonza, cat. CC-2519) and human mesenchymal stem cells (hMSC, Lonza, cat. PT-2501) were purchased from Lonza (Walkersville, MD).
Cell Culture. All cells were maintained in an incubator at 37 degrees C and 5% CO2 with 95% humidity. The PDC lines were cultured according to standard operating procedures established by the NCI PDMR (https://pdmr.cancer.gov). Briefly all PDCs were thawed and cultured in Matrigel-coated flasks prepared with a working solution of 1X Ham's F-12 nutrient mix, without supplementation (Invitrogen, Waltham, MA, cat. 11765054), 100 U/mL penicillin-streptomycin (Invitrogen, cat. 15140122), and 2.5% Matrigel (Corning Inc., Corning, NY, cat. 354248) for the first three passages. […]
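Note: spheroids exposed to agents for seven days before readout.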
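Throughout, for viability, T/C: 100% = DMSO vehicle control wells as normalization base.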

CC[C@@]1(O)C(=O)OCc2c1cc1n(c2=O)Cc2cc3c(CN(C)C)c(O)ccc3nc2-1 + NC1CC1c1ccc(-c2cccc(O)c2)cc1
IC50 (second compound 0.1 µM): > 100 nM | IC50 (second compound 0.316 µM): > 100 nM | IC50 (second compound 1 µM): > 100 nM | IC50 (second compound 3.16 µM): > 100 nM | IC50 (second compound 10 µM): > 100 nM | viability, T/C (second compound 0.1 µM, first compound 0.000316 µM): 117% | viability, T/C (second compound 0.1 µM, first compound 0.001 µM): 116% | viability, T/C (second compound 0.1 µM, first compound 0.00316 µM): 106% | viability, T/C (second compound 0.1 µM, first compound 0.01 µM): 84.8% | viability, T/C (second compound 0.1 µM, first compound 0.0316 µM): 70% | viability, T/C (second compound 0.1 µM, first compound 0.1 µM): 49.7% | viability, T/C (second compound 0.316 µM, first compound 0.000316 µM): 118% | viability, T/C (second compound 0.316 µM, first compound 0.001 µM): 107% | viability, T/C (second compound 0.316 µM, first compound 0.00316 µM): 106% | viability, T/C (second compound 0.316 µM, first compound 0.01 µM): 82.8% | viability, T/C (second compound 0.316 µM, first compound 0.0316 µM): 64.5% | viability, T/C (second compound 0.316 µM, first compound 0.1 µM): 55.3% | viability, T/C (second compound 1 µM, first compound 0.000316 µM): 114% | viability, T/C (second compound 1 µM, first compound 0.001 µM): 109% | viability, T/C (second compound 1 µM, first compound 0.00316 µM): 97.8% | viability, T/C (second compound 1 µM, first compound 0.01 µM): 95.2% | viability, T/C (second compound 1 µM, first compound 0.0316 µM): 67.1% | viability, T/C (second compound 1 µM, first compound 0.1 µM): 54.3% | viability, T/C (second compound 3.16 µM, first compound 0.000316 µM): 108% | viability, T/C (second compound 3.16 µM, first compound 0.001 µM): 97.2% | viability, T/C (second compound 3.16 µM, first compound 0.00316 µM): 100% | viability, T/C (second compound 3.16 µM, first compound 0.01 µM): 89.2% | viability, T/C (second compound 3.16 µM, first compound 0.0316 µM): 81.9% | viability, T/C (second compound 3.16 µM, first compound 0.1 µM): 71.5% | viability, T/C (second compound 10 µM, first compound 0.000316 µM): 103% | viability, T/C (second compound 10 µM, first compound 0.001 µM): 115% | viability, T/C (second compound 10 µM, first compound 0.00316 µM): 107% | viability, T/C (second compound 10 µM, first compound 0.01 µM): 76.5% | viability, T/C (second compound 10 µM, first compound 0.0316 µM): 78.8% | viability, T/C (second compound 10 µM, first compound 0.1 µM): 62.1%
